Test results reported in patent US20220289698A1, “INHIBITORS OF HUMAN ATGL” (Karl-Franzens-Universität Graz, priority 2019, published 2022).
Read-outs that look alike come from different tables or passages of the source.

Key:
Type in all cases: biochemical
human ATGL = biological target: T1, human ATGL (Homo sapiens, UniProt Q96AD5); experiment: TG hydrolase activity, Expi cell lysates expressing human ATGL + CGI-58, radiolabelled triolein
T1 construct: made in house; host or cells: Expi cells (lysate, not purified)
T1 sequence (Q96AD5 1-504): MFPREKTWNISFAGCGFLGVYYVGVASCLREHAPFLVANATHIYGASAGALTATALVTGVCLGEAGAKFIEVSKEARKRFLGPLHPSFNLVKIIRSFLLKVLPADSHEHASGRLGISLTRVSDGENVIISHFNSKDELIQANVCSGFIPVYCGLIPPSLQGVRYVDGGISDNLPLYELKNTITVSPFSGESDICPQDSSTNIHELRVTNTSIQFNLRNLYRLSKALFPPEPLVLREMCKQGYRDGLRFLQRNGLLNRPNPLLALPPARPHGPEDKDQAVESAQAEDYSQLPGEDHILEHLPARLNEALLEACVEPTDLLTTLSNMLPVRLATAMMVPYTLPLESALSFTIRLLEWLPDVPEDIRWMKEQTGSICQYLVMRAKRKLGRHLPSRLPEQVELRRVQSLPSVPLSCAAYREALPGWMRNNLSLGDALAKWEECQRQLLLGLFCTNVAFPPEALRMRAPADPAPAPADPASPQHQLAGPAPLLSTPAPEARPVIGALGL
In short: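 Lysates of Expi cells expressing ATGL, supplemented with purified CGI-58 and inhibitor in DMSO, incubated 1 h at 37 °C with emulsified radiolabelled triolein (330 μM) in potassium phosphate pH 7.0 with 5% FA-free BSA. Released FA counted by liquid scintillation after phase extraction; IC50 versus DMSO control, duplicates.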

rhesus monkey ATGL = experiment: Rhesus monkey ATGL inhibition, Expi lysates + CGI-58
Experimental: (§1) Lysates from Expi cells overexpressing ATGL from rhesus monkeys (Macaca mulatta) were incubated with recombinant purified ATGL co-activator CGI-58 and ATGL inhibitors at 50 μM. Subsequently, substrate containing radiolabeled triolein was added and liberated FA were extracted and quantified by liquid scintillation. Inhibitors were dissolved in DMSO which was used as control. Samples were measured in triplicates.

pig vWAT = experiment: Pig vWAT inhibition, visceral adipose tissue lysates + CGI-58
Experimental: as §1, with “visceral adipose tissue of pigs (Sus scrofa)” for “Expi cells overexpressing ATGL from rhesus monkeys (Macaca mulatta)”

hPNPLA6 = biological target: T2, hPNPLA6 (Homo sapiens, UniProt Q8IY17); experiment: hPNPLA6 off-target inhibition; conditions: read-out: hPNPLA6 off-target inhibition [% inhibition at 100 μM]
T2 construct: made in house; host or cells: Expi cells (lysate)
T2 sequence (Q8IY17 1-1375): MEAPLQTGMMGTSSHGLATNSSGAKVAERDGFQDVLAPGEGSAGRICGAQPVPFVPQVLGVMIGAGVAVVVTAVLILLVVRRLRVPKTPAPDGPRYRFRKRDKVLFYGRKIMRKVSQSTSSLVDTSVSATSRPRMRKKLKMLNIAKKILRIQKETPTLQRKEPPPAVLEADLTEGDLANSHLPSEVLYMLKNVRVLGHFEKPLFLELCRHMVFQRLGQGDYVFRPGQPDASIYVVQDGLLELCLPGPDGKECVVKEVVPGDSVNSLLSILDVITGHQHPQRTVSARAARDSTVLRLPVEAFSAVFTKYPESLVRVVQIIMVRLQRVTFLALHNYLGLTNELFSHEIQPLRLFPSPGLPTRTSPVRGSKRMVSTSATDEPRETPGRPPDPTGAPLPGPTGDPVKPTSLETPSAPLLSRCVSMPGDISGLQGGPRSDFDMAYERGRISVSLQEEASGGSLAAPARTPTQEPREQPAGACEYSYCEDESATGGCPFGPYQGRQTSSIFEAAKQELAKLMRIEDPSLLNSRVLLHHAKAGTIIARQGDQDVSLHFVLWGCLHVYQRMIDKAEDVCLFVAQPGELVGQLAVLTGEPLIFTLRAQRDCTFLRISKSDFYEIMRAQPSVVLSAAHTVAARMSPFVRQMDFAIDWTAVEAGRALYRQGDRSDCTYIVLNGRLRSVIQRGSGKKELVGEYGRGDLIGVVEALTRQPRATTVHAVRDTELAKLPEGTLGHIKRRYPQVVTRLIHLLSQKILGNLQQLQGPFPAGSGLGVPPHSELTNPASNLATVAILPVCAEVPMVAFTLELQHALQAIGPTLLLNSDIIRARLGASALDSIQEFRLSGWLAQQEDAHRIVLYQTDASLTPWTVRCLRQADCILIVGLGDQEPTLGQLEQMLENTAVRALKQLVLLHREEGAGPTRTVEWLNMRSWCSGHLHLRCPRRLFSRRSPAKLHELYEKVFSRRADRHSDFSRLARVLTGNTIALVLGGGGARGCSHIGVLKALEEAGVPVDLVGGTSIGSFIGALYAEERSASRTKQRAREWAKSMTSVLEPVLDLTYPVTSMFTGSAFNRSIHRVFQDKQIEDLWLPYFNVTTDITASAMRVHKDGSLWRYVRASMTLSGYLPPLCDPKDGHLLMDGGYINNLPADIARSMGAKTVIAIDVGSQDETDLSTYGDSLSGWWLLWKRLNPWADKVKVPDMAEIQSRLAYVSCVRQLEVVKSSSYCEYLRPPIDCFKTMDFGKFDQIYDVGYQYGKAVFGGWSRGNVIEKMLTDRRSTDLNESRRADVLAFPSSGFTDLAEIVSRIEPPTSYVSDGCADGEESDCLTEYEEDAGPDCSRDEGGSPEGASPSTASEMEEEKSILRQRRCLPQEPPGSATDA
Experimental: Expi lysates expressing hPNPLA6 were treated with 100 μM Inhibitors and incubated with 1 mM C8 monoacylglycerol substrate (containing 5 mM CHAPS, 50 mM NaPh buffer ph7.4, 0.15 M NaCl) for 40 min, Glycerol release was determined via Free glycerol reagent (Sigma Aldrich). Samples measured in triplicates.

[1] = Example 238, read-out: Inhibition of human ATGL IC50
[2] = Example 237, read-out: Inhibition of human ATGL − IC50

Compound | IC50 (human ATGL; [1]) [µM] | rhesus monkey ATGL inhibition [% inhibition at 50 μM] (rhesus monkey ATGL) [%] | pig vWAT inhibition [% inhibition at 50 μM (pig vWAT) [%] | inhibition at 100 µM (hPNPLA6) [%] | IC50 (human ATGL; [2]) [µM]
CCOc1ccc(-c2nc(C(=O)OCc3ccc(Cl)s3)cs2)cc1 [Example 223, (5-Chlorothiophen-2-yl)methyl 2-(4-ethoxyphenyl)thiazole-4-carboxylate] | 12 | 65 | 15 | 0 | –
CCOc1ccc(-c2nc(C(=O)OCc3cccs3)cs2)cc1 [Example 152, Thiophen-2-ylmethyl 2-(4-ethoxyphenyl)thiazole-4-carboxylate] | – | 10 | 0 | 0 | 10
CC#CCOC(=O)c1csc(-c2ccc(OCC)cc2)n1 [Example 209, But-2-yn-1-yl 2-(4-ethoxyphenyl)thiazole-4-carboxylate] | 10 | 70 | 0 | 0 | –
CCOc1ccc(-c2nc(C(=O)OCc3ccc(Br)s3)cs2)cc1 [Example 224, (5-Bromothiophen-2-yl)methyl 2-(4-ethoxyphenyl)thiazole-4-carboxylate] | 12 | 70 | 15 | 0 | –
C#C[C@@H](C)OC(=O)c1csc(-c2ccc(OCC)cc2)n1 [Example 211, (R)-But-3-yn-2-yl 2-(4-ethoxyphenyl)thiazole-4-carboxylate] | < 3 | 100 | 5 | 0 | –
CCOc1ccc(-c2nc(C(=O)OCc3ccoc3)cs2)cc1 [Example 216, Furan-3-ylmethyl 2-(4-ethoxyphenyl)thiazole-4-carboxylate] | < 3 | 70 | 15 | 0 | –
CCCCOC(=O)c1csc(-c2ccc(OCC)cc2)n1 [Example 212, Butyl 2-(4-ethoxyphenyl)thiazole-4-carboxylate] | 7 | 70 | 5 | 0 | –
CCOc1ccc(-c2cccc(C(=O)OCc3ccco3)n2)cc1 [Example 190, Furan-2-ylmethyl 6-(4-ethoxyphenyl)picolinate] | 15 | 70 | 0 | 0 | –
CCOc1ccc(-c2cccc(C(=O)OCc3cccs3)n2)cc1 [Example 189, Thiophen-2-ylmethyl 6-(4-ethoxyphenyl)picolinate] | 25 | 70 | 15 | 0 | –
CCOc1ccc(-c2cc(OC)cc(C(=O)OC(C)C)n2)cc1 [Example 35] | – | – | – | – | 1
C#C[C@H](C)OC(=O)c1csc(-c2ccc(OCC)cc2)n1 [Example 210, (S)-But-3-yn-2-yl 2-(4-ethoxyphenyl)thiazole-4-carboxylate] | < 3 | 90 | 5 | 0 | –
COc1cc(C(=O)OC(C)C)nc(-c2ccc(OC(C)C)cc2)c1 [Example 201, Isopropyl 6-(4-isopropoxyphenyl)-4-methoxypicolinate] | < 3 | 95 | 0 | 0 | –
CCOc1ccc(-c2nc(C(=O)OCc3ccsc3)cs2)cc1 [Example 215, Thiophen-3-ylmethyl 2-(4-ethoxyphenyl)thiazole-4-carboxylate] | < 3 | 70 | 15 | 0 | –
